From ChEMBL document CHEMBL1154257, “Prediction of telomerase inhibitory activity for acridinic derivatives based on chemical structure” (Eur J Med Chem, 2009) come the findings set out here.

The assay deals with Telomerase reverse transcriptase (Homo sapiens, UniProt O14746). The assay can be described thus: Inhibition of telomerase in human A2780 cells by TRAP assay. Format: cell-based.
Sequence of Telomerase reverse transcriptase (O14746 whole entry): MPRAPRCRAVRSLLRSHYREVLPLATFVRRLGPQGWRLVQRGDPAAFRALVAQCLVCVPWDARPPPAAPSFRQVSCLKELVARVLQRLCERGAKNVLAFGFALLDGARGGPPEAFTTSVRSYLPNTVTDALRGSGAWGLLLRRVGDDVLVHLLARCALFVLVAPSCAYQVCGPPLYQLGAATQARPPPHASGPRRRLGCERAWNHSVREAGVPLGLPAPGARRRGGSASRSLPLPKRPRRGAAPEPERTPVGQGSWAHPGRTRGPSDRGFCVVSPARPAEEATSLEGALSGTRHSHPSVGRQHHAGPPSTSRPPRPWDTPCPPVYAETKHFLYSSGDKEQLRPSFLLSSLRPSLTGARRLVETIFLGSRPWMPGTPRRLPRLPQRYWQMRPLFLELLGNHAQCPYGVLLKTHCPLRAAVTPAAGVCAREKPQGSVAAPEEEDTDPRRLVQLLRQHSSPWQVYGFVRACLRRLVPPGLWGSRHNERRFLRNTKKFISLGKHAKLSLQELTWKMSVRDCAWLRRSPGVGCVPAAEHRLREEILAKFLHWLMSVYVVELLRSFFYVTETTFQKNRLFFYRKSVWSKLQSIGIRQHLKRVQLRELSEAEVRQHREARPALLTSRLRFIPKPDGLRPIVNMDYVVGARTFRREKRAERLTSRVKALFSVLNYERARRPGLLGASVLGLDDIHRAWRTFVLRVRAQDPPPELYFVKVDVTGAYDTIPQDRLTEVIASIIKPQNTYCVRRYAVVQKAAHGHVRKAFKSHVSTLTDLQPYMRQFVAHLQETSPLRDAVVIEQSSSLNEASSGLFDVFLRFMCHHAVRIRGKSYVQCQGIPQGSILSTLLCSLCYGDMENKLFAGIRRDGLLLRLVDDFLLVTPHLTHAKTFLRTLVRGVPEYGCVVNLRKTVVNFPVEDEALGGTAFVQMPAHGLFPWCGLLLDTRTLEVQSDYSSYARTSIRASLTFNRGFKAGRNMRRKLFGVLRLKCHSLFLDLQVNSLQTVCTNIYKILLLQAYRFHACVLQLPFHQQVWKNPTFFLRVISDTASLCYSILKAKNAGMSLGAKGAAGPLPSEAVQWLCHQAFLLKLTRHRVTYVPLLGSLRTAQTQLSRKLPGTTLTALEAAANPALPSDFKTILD

By IC50 is commonly meant the midpoint of a concentration-inhibition curve. Molecule `Nc1ccc(Nc2c3ccc(NC(=O)CCN4CCCC4)cc3nc3cc(NC(=O)CCN4CCCC4)ccc23)cc1` gave an IC50 of 74 nM.

In the case of `COc1ccc(Nc2c3cc(NC(=O)CCN4CCCC4)ccc3nc3ccc(NC(=O)CCN4CCCC4)cc23)cc1`, the IC50 was determined as 460 nM.

`CN(C)CCNc1c2cc(NC(=O)CCN3CCCC3)ccc2nc2ccc(NC(=O)CCN3CCCC3)cc12` showed a 50% inhibitory concentration (IC50) of 570 nM. This IC50 and that of the molecule before are within 1.5-fold of each other.

`CN(C)CCNc1c2ccc(NC(=O)CCN3CCCC3)cc2nc2ccc(NC(=O)CCN3CCCC3)cc12` displayed an IC50 of 270 nM.

`O=C(CCCCC(=O)N1CCCC1)Nc1ccc(Nc2c3ccc(NC(=O)CCN4CCCC4)cc3nc3cc(NC(=O)CCN4CCCC4)ccc23)cc1` yielded a half-maximal inhibitory concentration (IC50) of 318 nM.

The molecule `CN(C)c1ccc(Nc2c3ccc(NC(=O)CCN4CCCC4)cc3nc3cc(NC(=O)CCN4CCCC4)ccc23)cc1` registered an IC50 of 100 nM.

Regarding `COc1cccc(Nc2c3cc(NC(=O)CCN4CCCC4)ccc3nc3ccc(NC(=O)CCN4CCCC4)cc23)c1`, the midpoint of inhibition, the IC50, lay at 2730 nM.

In the case of `C[N+]1(CCC(=O)Nc2ccc3nc4ccc(NC(=O)CC[N+]5(C)CCNCC5)cc4c(O)c3c2)CCNCC1`, half-maximal inhibition (IC50) required 1900 nM.

Take `CN(C)c1ccc(Nc2c3ccc(NC(=O)CCN4CCCC4)cc3nc3ccc(NC(=O)CCN4CCCC4)cc23)cc1`: the IC50 was 170 nM.

Turning to `O=C(CCN1CCCC1)Nc1ccc2c(=O)c3ccc(NC(=O)CCN4CCCC4)cc3[nH]c2c1`, the IC50 was 8100 nM. Compared with the last molecule, the IC50 is about 48-fold higher.

In turn, `O=C(CCN1CCCC1)Nc1ccc2nc3ccc(NC(=O)CCN4CCCC4)cc3c(Nc3ccccc3O)c2c1` returned an IC50 of 1030 nM.

Turning to `CCC1CCCCN1CCC(=O)Nc1ccc2c(=O)c3ccc(NC(=O)CCN4CCCCC4CC)cc3[nH]c2c1` (stereo unspecified), the IC50 was 2300 nM.

With `CCN(CC)CCC(=O)Nc1ccc2c(=O)c3ccc(NC(=O)CCN(CC)CC)cc3[nH]c2c1`, the IC50 came out at 2700 nM.

As to `Nc1cccc(Nc2c3cc(NC(=O)CCN4CCCC4)ccc3nc3ccc(NC(=O)CCN4CCCC4)cc23)c1`, the concentration for half-maximal inhibition (IC50) worked out at 1090 nM. This IC50 is about 2.5-fold lower than that of the molecule before.

The molecule `O=C(CCN1CCCCC1)Nc1ccc2c(O)c3cc(NC(=O)CCN4CCCCC4)ccc3nc2c1` returned an IC50 of 400 nM.

In the case of `Nc1ccccc1Nc1c2cc(NC(=O)CCN3CCCC3)ccc2nc2ccc(NC(=O)CCN3CCCC3)cc12`, the IC50 is 170 nM.

`O=C(CCN1CCCC1)Nc1ccc2c(Nc3ccccc3)c3cc(NC(=O)CCN4CCCC4)ccc3nc2c1`: inhibition was half-maximal at 1330 nM (IC50). This IC50 lies about 7.8-fold higher than the previous one.

For the molecule `O=C(CCN1CCC(O)CC1)Nc1ccc2nc3ccc(NC(=O)CCN4CCC(O)CC4)cc3c(O)c2c1`, inhibition was half-maximal at 2300 nM (IC50).

Consider `O=C(CC[N+]1([O-])CCCCC1)Nc1ccc2c(=O)c3ccc(NC(=O)CC[N+]4([O-])CCCCC4)cc3[nH]c2c1`, for which the IC50 came to 49000 nM. Compared with the last molecule, the IC50 is about 21-fold higher.

Molecule `O=C(CCN1CCCCC1)Nc1ccc2nc3ccc(NC(=O)CCN4CCCCC4)cc3c(O)c2c1` showed an IC50 of 1900 nM. This IC50 lies about 26-fold lower than the previous one.

Molecule `CC1(C)CC2CN(CCC(=O)Nc3ccc4cc5ccc(NC(=O)CCN6CC7CC(C)(C)CC(C)(C7)C6)cc5nc4c3)CC(C)(C2)C1` showed an IC50 greater than 50000 nM.

In the case of `O=C(CCN1CCCCC1CCO)Nc1ccc2c(=O)c3cc(NC(=O)CCN4CCCCC4CCO)ccc3[nH]c2c1` (stereo unspecified), the IC50 stood at 200 nM.

`O=C(CCN1CCCC1)Nc1ccc2nc3ccc(NC(=O)CCN4CCCC4)cc3c(O)c2c1` had an IC50 of 5800 nM.

The molecule `CC1CCN(CCC(=O)Nc2ccc3c(O)c4cc(NC(=O)CCN5CCC(C)CC5)ccc4nc3c2)CC1` yielded an IC50 of 200 nM.

`CC1CCN(CCC(=O)Nc2ccc3c(=O)c4ccc(NC(=O)CCN5CCC(C)CC5)cc4[nH]c3c2)CC1` showed an IC50 of 1700 nM.

The molecule `O=C(CCN1CCCC1)Nc1ccc2nc3ccc(NC(=O)CCN4CCCC4)cc3c(Nc3ccccc3)c2c1` yielded a half-maximal inhibitory concentration (IC50) of 1290 nM.

Regarding `CC1CCCCN1CCC(=O)Nc1ccc2nc3ccc(NC(=O)CCN4CCCCC4C)cc3c(O)c2c1` (stereo unspecified), the IC50 came out at 1500 nM.

`Nc1cccc(Nc2c3ccc(NC(=O)CCN4CCCC4)cc3nc3ccc(NC(=O)CCN4CCCC4)cc23)c1` returned an IC50 of 210 nM.

Molecule `Nc1ccccc1Nc1c2ccc(NC(=O)CCN3CCCC3)cc2nc2ccc(NC(=O)CCN3CCCC3)cc12` came in with an IC50 of 110 nM.

In the case of `CN(C)c1cccc(Nc2c3cc(NC(=O)CCN4CCCC4)ccc3nc3ccc(NC(=O)CCN4CCCC4)cc23)c1`, half-maximal inhibition (IC50) required 600 nM.

As to `CCN(CC)CCNC(=O)CCCCC(=O)Nc1ccc(Nc2c3ccc(NC(=O)CCN4CCCC4)cc3nc3cc(NC(=O)CCN4CCCC4)ccc23)cc1`, the IC50 came to 98 nM.

As for `CN(C)CCCNc1c2ccc(NC(=O)CCN3CCCC3)cc2nc2ccc(NC(=O)CCN3CCCC3)cc12`, the IC50 was 80 nM.

Regarding `CCN(CC)CCC(=O)Nc1ccc2c(O)c3cc(NC(=O)CCN(CC)CC)ccc3nc2c1`, 700 nM corresponded to half-maximal inhibition (IC50).

For `Nc1ccc(Nc2c3cc(NC(=O)CCN4CCCC4)ccc3nc3ccc(NC(=O)CCN4CCCC4)cc23)cc1`, inhibition was half-maximal at 200 nM (IC50).

`CC1CCCCN1CCC(=O)Nc1ccc2c(=O)c3ccc(NC(=O)CCN4CCCCC4C)cc3[nH]c2c1` (stereo unspecified): the 50% inhibitory concentration (IC50) was determined as 2300 nM.

`O=C(CCN1CCC(O)CC1)Nc1ccc2c(O)c3cc(NC(=O)CCN4CCC(O)CC4)ccc3nc2c1` displayed a 50% inhibitory concentration (IC50) of 200 nM. Against the preceding molecule, the IC50 is about 12-fold lower.

As for `CN(C)CCC(=O)Nc1ccc2nc3ccc(NC(=O)CCN(C)C)cc3c(O)c2c1`, the IC50 amounted to 600 nM.

Molecule `CCN(CC)CCCCCCNC(=O)CCCCC(=O)Nc1ccc(Nc2c3ccc(NC(=O)CCN4CCCC4)cc3nc3cc(NC(=O)CCN4CCCC4)ccc23)cc1` gave an IC50 of 80 nM.

For `CN(C)c1ccc(Nc2c3cc(NC(=O)CCN4CCCC4)ccc3nc3ccc(NC(=O)CCN4CCCC4)cc23)cc1`, the IC50 stood at 500 nM.

Take `O=C(CCN1CCC(O)CC1)Nc1ccc2c(O)c3ccc(NC(=O)CCN4CCC(O)CC4)cc3nc2c1`: the IC50 was 1700 nM.

`O=C(CCN1CCCC1)Nc1ccc2c(NC3CCCCC3)c3cc(NC(=O)CCN4CCCC4)ccc3nc2c1` showed an IC50 of 210 nM.
